Measurements from patent US4550170A, “6-Phenyl-2,3,5,6-tetrahydroimidazo-[2,1-b]-thiazole derivatives” (Institut Organicheskoi Khimii Akademii Nauk Ukrainskoi SSR, priority 1984, dated 1985).
Like-named read-outs stand apart in the source and are kept apart here.

Legend:
[1] = tested on: allergic reaction of the delayed type in mice; assay: delayed-type (contact) hypersensitivity reaction to dinitrochlorobenzene, ear thickness in mice; type: in vivo, CBA mice; conditions: for Ear thickness, Control, Average value / Ear thickness, Control, Range of fluctuations: control (right) ear; for Ear thickness, Experiment, Average value / Ear thickness, Experiment, Range of fluctuations: test (left) ear; for dose sufficient for inhibition of the contact hypersensitivity, lower than that of levamizole: ratio to levamizole
[2] = tested on: delayed-type hypersensitivity reaction; assay: delayed-type hypersensitivity reaction to 2,4-dinitrochlorobenzene in guinea pigs; type: in vivo
[3] = tested on: delayed-type hypersensitivity reaction; assay: delayed-type hypersensitivity reaction to rat's thymocytes in mice (popliteal lymph nodes); type: in vivo
[4] = tested on: virus of vesicular stomatitis; type: cell-based
[5] = physical properties of the compounds; type: physicochemical
in vivo [6] = conditions: mouse, sc
[7] = tested on: IgE antibodies in respiratory organs
Description: The local production of IgE-antibodies in trachea and lungs of rats of the lines WAY, August with a mass of 250-300 g was induced by means of a successive (with the interval of 40 minutes) dropping a 0.1% solution of histamine and ambrosia allergen (10,000 PNU/ml) into both nasal passages. […] One day after the administration of the allergen IgE-antibodies were determined in homogenates of trachea and lungs prepared at the rate of 0.1 ml of a physiological solution per 10 mg of the tissue by the method of indirect degranulation of obese cells.

human tonsillocytes [8] = assay: natural cytotoxicity (natural killers) of human tonsillocytes, 51Cr release; type: cell-based; conditions: for Yield of 51Cr from target cells, natural cytotoxicity, average value: (III) significant P below 0.05
From the text: (§1) The cytolytic effect of tonsillocytes was studied by the radioisotope method using Cr^51. On doing so, the deterioration of target cells (chicken's erythrocytes) by tonsil lymphocytes was regarded as spontaneous cytolysis, while the destruction of the target cells loaded, in addition to the isotopic tracer, with homologous antibodies in the sublytic dose was considered as antibody-dependent cytolysis. […] Afterwards they were twice washed by means of Medium 199 using centrifugation (105 g, 10 minutes). […] The degree of destruction of the target cells was determined radiometrically by the outcome of Cr^51 into the liquid phase.

human tonsillocytes [9] = assay: antibody-dependent cytotoxicity of human tonsillocytes, 51Cr release; type: cell-based
From the text: as §1, with “On this basis, the effect of one of the lest toxic compound (III) out of those of the present invention was studied for the antibody-dependent cytolytic activity of cells. […] The cytolytic” for “The cytolytic”

[10] = tested on: Staphylococcus aureus, Proteum, Bacillus pyocyanes; assay: antibacterial activity in vitro, serial dilutions; type: cell-based; conditions: relative to compound (II)
Description: In the experiments in vitro the antibacterial activity of the compounds of the present invention was studied. To this end, serial dilutions of compounds (II) and (III) with a concentration of from 1% to 0.00001% were prepared and 0.1 ml of a microbal suspension was added thereto (Staphylococcus aureus, Proteum, Bacillus pyocyanes). The microbal load for staphylococcus was about 1×10^5 cells/ml, for Proteum and Bacillus pyocyanes -1×10^4 c cells/ml. […] The bacteria were incubated along with the compounds according to the present invention at the temperature of 37° C. […] Inoculations were effected by spreading 0.1 ml of a suspension of bacteria in a corresponding dilution of the compounds over the surface of an agar dish using a glass spatula.

in vivo [11] = conditions: rat, rats
in vivo [12] = conditions: rabbit
[13] = 100 μg/ml, certainty: (II), (III) below 0.05, (I), levamizole above 0.05
[14] = 500 μg/ml, certainty: all below 0.05
[15] = 100 μg/ml, negative = test value exceeded the control

In the case of CCCCCCCCCCOC(=O)C[N+]1=C2SCCN2CC1c1ccccc1 (stereo not drawn) [Compound (II), 2,3,5,6-tetrahydro-6-phenyl-7-decyloxycarbonylmethylimidazo-[2,1-b]-thiazolium bromide], the “Ear thickness, Control, Average value” ([1]; 2.5 mg/kg per os) is reported as 202.2 μm, the “Ear thickness, Control, Range of fluctuations” value (from here on “Ear thickness, Control, Range”) ([1]; 2.5 mg/kg per os) is reported as 150-250 μm and the “Ear thickness, Experiment, Average value” ([1]; 2.5 mg/kg per os) is reported as 222.8 μm. For the same molecule, the “Ear thickness, Experiment, Range of fluctuations” value (“Ear thickness, Experiment, Range” for short) ([1]; 2.5 mg/kg per os) was 175-300 μm, the “Ear thickness, Control, Average value” ([1]; 25 mg/kg per os) was 178.9 μm and the “Ear thickness, Control, Range” value ([1]; 25 mg/kg per os) was 150-240 μm. The “Ear thickness, Experiment, Average value” ([1]; 25 mg/kg per os) was 184.4 μm, the “Ear thickness, Experiment, Range” value ([1]; 25 mg/kg per os) was 170-240 μm and the “dose sufficient for inhibition of the contact hypersensitivity, lower than that of levamizole” value [1] was 10 times. The “Difference in temperature of the pad surfaces, Average value” ([2]; 1,000 μg/ml) was “+1.2 ± 0.16 °C”, the “Difference in thickness of control and test talipes, Average value” ([2]; 1,000 μg/ml) was “+0.63 ± 0.09 mm” and the “Difference in masses of popliteal lymph nodes in the control and test limb, Average value” (“Difference in masses” below) ([3]; 1,000 μg/ml) was “+1.3 ± 0.29 mg”. For the same molecule, the “Degree of inhibition of the virus reproduction” value ([4]; 1 μg/ml) was 10 times, the “Degree of inhibition of the virus reproduction” value ([4]; 10 μg/ml) was 100 times and the “solubility in lower alcohols” value [5] was “soluble”. The solubility in water [5] was “soluble”, the LD50 (in vivo [6]) was 167 mg/kg and the “Percent of degranulated mastocytes, Lungs” value (from here on “Percent … Lungs”) [7, 13] was 6.8 ± 0.9%. For the same molecule, the “Percent of degranulated mastocytes, Trachea” value (shortened to “Percent … Trachea”) [7, 13] was 15.0 ± 1.8%, the “Percent … Lungs” value [7, 14] was 6.5 ± 0.9% and the “Percent … Trachea” value [7, 14] was 3.5 ± 1.2%.

With NC(=O)C[N+]1=C2SCCN2CC1c1ccccc1 (stereo not drawn) [Compound (III), 2,3,5,6-tetrahydro-6-phenyl-7-carbamoylmethylimidazo-[2,1-b]-thiazolium bromide] the “Ear thickness, Control, Average value” ([1]; 2.5 mg/kg per os) was 176.7 μm, the “Ear thickness, Control, Range” value ([1]; 2.5 mg/kg per os) was 110-210 μm and the “Ear thickness, Experiment, Average value” ([1]; 2.5 mg/kg per os) was 184.4 μm. For the same molecule, the “Ear thickness, Experiment, Range” value ([1]; 2.5 mg/kg per os) was 110-220 μm, the “Ear thickness, Control, Average value” ([1]; 25 mg/kg per os) was 184.4 μm and the “Ear thickness, Control, Range” value ([1]; 25 mg/kg per os) was 170-200 μm. For the same molecule, the “Ear thickness, Experiment, Average value” ([1]; 25 mg/kg per os) was 190.0 μm, the “Ear thickness, Experiment, Range” value ([1]; 25 mg/kg per os) was 170-200 μm and the “dose sufficient for inhibition of the contact hypersensitivity, lower than that of levamizole” value [1] was 10 times. The “Yield of 51Cr from target cells, natural cytotoxicity, range of fluctuations” value (human tonsillocytes [8]; 1 μg/ml) was 7.0-60.0%, the “Yield of 51Cr from target cells, natural cytotoxicity, average value” (from here on “Yield of 51Cr from target cells … average value”) (human tonsillocytes [8]; 1 μg/ml) was 30.6% and the “Yield of 51Cr from target cells, natural cytotoxicity, range of fluctuations” value (human tonsillocytes [8]; 10 μg/ml) was 7.0-42.0%. For the same molecule, the “Yield of 51Cr from target cells … average value” (human tonsillocytes [8]; 10 μg/ml) was 28.8%, the “Yield of 51Cr from target cells, natural cytotoxicity, range of fluctuations” value (human tonsillocytes [8]; 100 μg/ml) was 1.0-40.0% and the “Yield of 51Cr from target cells … average value” (human tonsillocytes [8]; 100 μg/ml) was 24.8%. The “Yield of 51Cr from target cells, antibody dependent cytotoxicity, range of fluctuations” value (human tonsillocytes [9]; 1 μg/ml) was 10.0-57.0%, the “Yield of 51Cr from target cells, antibody dependent cytotoxicity, average” value (from here on “Yield … antibody dependent cytotoxicity, average”) (human tonsillocytes [9]; 1 μg/ml, (III) significant P below 0.05) was 23.2% and the “Yield of 51Cr from target cells, antibody dependent cytotoxicity, range of fluctuations” value (human tonsillocytes [9]; 10 μg/ml) was 13.0-36.0%. For the same molecule, the “Yield … antibody dependent cytotoxicity, average” value (human tonsillocytes [9]; 10 μg/ml, (III) significant P below 0.05) was 22.6%, the “Yield of 51Cr from target cells, antibody dependent cytotoxicity, range of fluctuations” value (human tonsillocytes [9]; 100 μg/ml) was 4.0-40.0% and the “Yield … antibody dependent cytotoxicity, average” value (human tonsillocytes [9]; 100 μg/ml, levamizole significant P below 0.05) was 19.1%. For the same molecule, the minimal effective concentration (human tonsillocytes [9]; Homo sapiens, read-out: concentration stimulating the antibody-dependent cytolytic activity) was 1 to 10 µg/mL, the “stimulating concentration lower as compared to levamizole, antibody-dependent cytolytic activity” value (human tonsillocytes [9]; ratio to levamizole) was 10-100 times and the “Degree of inhibition of the virus reproduction” value ([4]; 1 μg/ml) was 10 times. The “Degree of inhibition of the virus reproduction” value ([4]; 10 μg/ml) was 100 times, the “antibacterial activity lower by a factor of” value [10] was 2 and the solubility in acetone [5] was “only slightly soluble”. The solubility in benzene [5] was “only slightly soluble”, the “solubility in lower alcohols” value [5] was “well soluble” and the solubility in water [5] was “well soluble”. The LD50 (in vivo [6]) was 1020 mg/kg, the LD50 (in vivo [11]; po, LD50 upon peroral administration, female) was 3500 mg/kg and the LD50 (in vivo [11]; po, LD50 upon peroral administration, male) was 5750 mg/kg. For the same molecule, the LD50 (in vivo [11]; sc, LD50 upon subcutaneous injection, female) was 1420 mg/kg, the LD50 (in vivo [11]; sc, LD50 upon subcutaneous injection, male) was 2580 mg/kg and the LD50 (in vivo [12]; po) was 3330 mg/kg. The LD50 (in vivo [12]; sc) was 317 mg/kg, the “Percent … Lungs” value [7, 13] was 10.6 ± 3.9% and the “Percent … Trachea” value [7, 13] was 9.1 ± 2.1%. For the same molecule, the “Percent … Lungs” value [7, 14] was 6.1 ± 1.1% and the “Percent … Trachea” value [7, 14] was 7.1 ± 1.7%.

For COC(=O)C[N+]1=C2SCCN2CC1c1ccccc1 (stereo not drawn) [Compound (I), 2,3,5,6-tetrahydro-6-phenyl-7-methoxycarbonylmethylimidazo-[2,1-b]-thiazolium bromide], the “Difference in temperature of the pad surfaces, Average value” [2, 15] was -1.5 ± 0.27 °C, the “Difference in thickness of control and test talipes, Average value” [2, 15] was -0.6 ± 0.062 mm and the “Difference in masses” value [3, 15] was -1.1 ± 0.08 mg. For the same molecule, the “Difference in masses” value ([3]; 500 μg/ml) was “+1.3 ± 0.2 mg”, the solubility in acetone [5] was “sparingly soluble” and the solubility in benzene [5] was “sparingly soluble”. The “solubility in lower alcohols” value [5] was “soluble”, the solubility in water [5] was “soluble” and the LD50 (in vivo [6]) was 262 mg/kg. For the same molecule, the “Percent … Lungs” value [7, 13] was 19.4 ± 1.8%, the “Percent … Trachea” value [7, 13] was 17.8 ± 1.3% and the “Percent … Lungs” value [7, 14] was 9.3 ± 0.8%. The “Percent … Trachea” value [7, 14] was 7.0 ± 0.2%.
